From patent publication US20250032658A1, “SYSTEMS AND METHODS FOR NEUTRALIZATION OF AIRBORNE ALLERGENS WITH ORGANIC ACIDS” (The Clorox Company, priority 2023, published 2025)
Like-named read-outs stand apart in the source and are kept apart here.

What was measured:
[1] = cited from earlier work
[2] = room temperature and standard pressure; cited from earlier work
[3] = pKa / acid form of lactic acid; assay type: physicochemical; conditions: at a pH of 2.2
Excerpt: In some example embodiments, the pH of the anti-allergen formulations can be kept low. A low pH can enhance the organic acid efficacy (e.g., lactic acid efficacy) in neutralization of airborne allergens. Typically, pH is kept a least 1 unit below pKa of the organic acid to ensure majority (at least 90%) of acid stays in the active (conjugate acid) form. […].

SMILES	Solubility in water [1]	Vapor Pressure [2] [Pa]	Solubility in water ([1]; at ~20° C.)	lactic acid in the acidic form [3]
CCCCCC(=O)O [hexanoic acid]	1.03 g of compound in 100 g of water	5.80		
O=C(O)/C=C\C(=O)O [maleic acid]			47.88 g of compound in 100 g of water	
NCC(=O)O [glycine]		0.000017		
CCCCC(=O)O [valeric acid]		100	3.75 g of compound in 100 g of water	
CCC(=O)O [propionic acid]		390		
O=C(O)CO [glycolic acid]		0.41		
C/C=C/C=C/C(=O)O [sorbic acid]		0.018	0.156 g of compound in 100 g of water	
CC(=O)CCC(=O)O [levulinic acid]		0.374	79.13 g of compound in 100 g of water	
CS(=O)(=O)O [methane sulfonic acid]		0.048	100 g of compound in 100 g of water	
CCCC(=O)O [butyric acid]		100		
CCCCCCC(=O)O [heptanoic acid]		1.35	0.2 g of compound in 100 g of water	
O=C(O)/C=C/C(=O)O [fumaric acid]			0.7 g of compound in 100 g of water	
O=C(O)CC(=O)O [malonic acid]		0.00049		
CC(=O)C(=O)O [pyruvic acid]		172	100 g of compound in 100 g of water	
CC(=O)O [acetic acid]		2080		
CC(O)C(=O)O (stereo not drawn) [lactic acid]		10.00		at least 95%
O=C(O)c1ccccc1 [benzoic acid]		0.11		
O=C(O)CC(O)C(=O)O (stereo not drawn) [malic acid]		0.000004	64.7 g of compound in 100 g of water	
CCCCCCCC(=O)O [octanoic acid]		0.49		
O=C(O)CCCCC(=O)O [adipic acid]		9.70		
O=C(O)CC(O)(CC(=O)O)C(=O)O [citric acid]		0.000002		
